Data taken from patent publication US20050065187A1, “Novel antimicrobial aryloxazolidinone compounds” (priority 2003, published 2005).
Converted amounts (≈) assume the structure as drawn. Read-outs that look alike come from different tables or passages of the source.

Experiments:
Assay in all cases: Antibacterial assay (Test A), microtitration MIC
MC 30603 = type: cell-based, M. catarrhalis; conditions: Moraxella catarrhalis, read-out: MC 30603 MIC
Experimental: (§1) Test A—Antibacterial Assays
(§2) The compounds of the present invention were tested against an assortment of Gram-negative and Gram-positive organisms using standard microtitration techniques (Cohen et. al., Antimicrob., 1985;28:766; Heifetz, et. al., Antimicrob., 1974;6:124).

SPNE 9912 = type: cell-based, S. pneumoniae; conditions: Streptococcus pneumoniae, read-out: SPNE 9912 MIC
Experimental: as §1, §2

SAUR 9213 = type: cell-based, S. aureus; conditions: Staphylococcus aureus, read-out: SAUR 9213 MIC
Experimental: as §1, §2

HINF 30063 = type: cell-based, H. influenza; conditions: Minimum Inhibitory Concentration, strain HINF 30063
Experimental: as §1, §2

Row | Structure (SMILES) | MIC (MC 30603) | MIC (SPNE 9912) | MIC (SAUR 9213) | MIC (HINF 30063) | MIC (MC 30603; Minimum Inhibitory Concentration, strain MC 30603) | MIC (SPNE 9912; Minimum Inhibitory Concentration, strain SPNE 9912) | MIC (SAUR 9213; Minimum Inhibitory Concentration, strain SAUR 9213)
1 | CC(=O)NC[C@H]1CN(c2ccc([C@@H]3CCC(=O)[C@@H](O)C3)c(F)c2)C(=O)O1 (stereo in doubt) [Example 25, N-{3-[3-Fluoro-4-(3-hydroxy-4-oxo-cyclohexyl)-phenyl]-2-oxo-oxazolidin-5-ylmethyl}-acetamide] | 8 µg/mL (≈ 22 µM) | 2 µg/mL (≈ 5.49 µM) | 2 µg/mL (≈ 5.49 µM) | 16 µg/mL (≈ 43.9 µM) |  |  | 
2 | O=C1CCN(c2ccc(N3C[C@H](Cn4ccnn4)OC3=O)cc2F)C[C@@H]1O [Example 6, 1-[2-Fluoro-4-(2-oxo-5-[1,2,3]triazol-1-ylmethyl-oxazolidin-3-yl)-phenyl]-3-hydroxy-piperidin-4-one] |  |  |  | 64 µg/mL (≈ 171 µM) | 8 µg/mL (≈ 21.3 µM) | 1 µg/mL (≈ 2.66 µM) | 4 µg/mL (≈ 10.7 µM)
